How the values were obtained:
[1] = molecular target: ATP-dependent translocase ABCB1 (Homo sapiens, UniProt P08183); test: TP_TRANSPORTER: inhibition of Digoxin transepithelial transport (basal to apical) in MDR1-expressing MDCK cells; format: functional, cell-based
[2] = test system: CC[C@]1(O)C[C@@H]2CN(CCc3c([nH]c4ccccc34)[C@@](C(=O)OC)(c3cc4c(cc3OC)N(C)[C@H]3[C@@](O)(C(=O)OC)[C@H](OC(C)=O)[C@]5(CC)C=CCN6CC[C@]43[C@@H]65)C2)C1; test: TP_TRANSPORTER: transepithelial transport (basal to apical) in MDR1-expressing MDCK cells; format: functional, cell-based

ATP-dependent translocase ABCB1, sequence (P08183 whole entry): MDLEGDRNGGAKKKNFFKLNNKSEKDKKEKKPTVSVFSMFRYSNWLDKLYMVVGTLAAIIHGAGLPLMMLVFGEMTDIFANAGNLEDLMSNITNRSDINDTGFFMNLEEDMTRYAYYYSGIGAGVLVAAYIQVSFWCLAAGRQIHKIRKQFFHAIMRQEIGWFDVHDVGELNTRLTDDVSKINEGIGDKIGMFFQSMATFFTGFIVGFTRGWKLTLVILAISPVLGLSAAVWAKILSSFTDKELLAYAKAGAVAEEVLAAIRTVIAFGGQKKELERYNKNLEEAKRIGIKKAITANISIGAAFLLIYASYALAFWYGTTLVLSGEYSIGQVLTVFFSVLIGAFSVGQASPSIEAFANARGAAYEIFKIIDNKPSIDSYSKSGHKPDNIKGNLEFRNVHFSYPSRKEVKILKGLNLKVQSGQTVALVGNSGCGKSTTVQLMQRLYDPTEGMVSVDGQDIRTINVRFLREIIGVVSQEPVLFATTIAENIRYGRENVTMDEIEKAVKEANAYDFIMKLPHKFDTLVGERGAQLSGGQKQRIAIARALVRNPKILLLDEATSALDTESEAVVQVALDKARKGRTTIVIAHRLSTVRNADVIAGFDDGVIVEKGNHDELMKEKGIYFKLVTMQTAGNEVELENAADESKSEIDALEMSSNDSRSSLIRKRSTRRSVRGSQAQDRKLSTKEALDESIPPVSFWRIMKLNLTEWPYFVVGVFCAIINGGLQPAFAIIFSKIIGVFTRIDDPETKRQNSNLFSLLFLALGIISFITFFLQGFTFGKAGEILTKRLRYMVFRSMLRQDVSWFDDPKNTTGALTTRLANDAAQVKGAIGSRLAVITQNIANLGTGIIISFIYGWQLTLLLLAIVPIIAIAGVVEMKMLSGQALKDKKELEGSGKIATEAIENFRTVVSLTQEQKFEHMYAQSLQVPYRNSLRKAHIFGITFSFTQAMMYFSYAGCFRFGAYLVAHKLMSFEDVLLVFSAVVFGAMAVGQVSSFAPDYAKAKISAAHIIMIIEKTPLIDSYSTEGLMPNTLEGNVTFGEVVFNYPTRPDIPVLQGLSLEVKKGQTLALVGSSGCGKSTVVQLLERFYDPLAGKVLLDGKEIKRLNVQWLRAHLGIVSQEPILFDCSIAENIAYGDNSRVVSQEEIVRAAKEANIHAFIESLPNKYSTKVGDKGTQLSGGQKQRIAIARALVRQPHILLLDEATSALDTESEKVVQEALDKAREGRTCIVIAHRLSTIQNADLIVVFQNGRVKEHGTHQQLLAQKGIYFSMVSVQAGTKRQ

| Ki [1] [µM] | Compound | Km [2] [µM] |
| --- | --- | --- |
| 111 | COc1cccc2c1C(=O)c1c(O)c3c(c(O)c1C2=O)C[C@@](O)(C(C)=O)C[C@@H]3O[C@H]1C[C@H](N)[C@H](O)[C@H](C)O1 [DAUNORUBICIN] | – |
| 11.5 | COC(=O)[C@H]1[C@H]2C[C@@H]3c4[nH]c5cc(OC)ccc5c4CCN3C[C@H]2C[C@@H](OC(=O)c2cc(OC)c(OC)c(OC)c2)[C@@H]1OC [RESERPINE] | – |
| 213 | CC[C@]1(O)C[C@H]2CN(CCc3c([nH]c4ccccc34)[C@@](C(=O)OC)(c3cc4c(cc3OC)N(C=O)[C@H]3[C@@](O)(C(=O)OC)[C@H](OC(C)=O)[C@]5(CC)C=CCN6CC[C@]43[C@@H]65)C2)C1 [VINCRISTINE] | – |
| – | ATP-dependent translocase ABCB1 (Homo sapiens) | 253 |

Reference: ChEMBL document CHEMBL2074370, “Are MDCK cells transfected with the human MDR1 gene a good model of the human intestinal mucosa?” (Pharm Res, 2002)
